Data: ChEMBL document CHEMBL4340504, “Caged-xanthone from Cratoxylum formosum ssp. pruniflorum inhibits malignant cancer phenotypes in multidrug-resistant human A549 lung cancer cells through down-regulation of NF-κB” (Bioorg Med Chem, 2019)
Converted amounts (≈) assume the structure as drawn. The source made the active and inactive calls. The calls are words filed in the database; no cut-off is given here.

Legend:
[1] = species: Homo sapiens; assay: Inhibition of NFkappaB in human A549RT-eto cells assessed as reduction in epithelial-mesenchymal transition by measuring up regulation of E-Cadherin expression at 1 to 1.5 ug/ml after 24 hrs by immunoblotting analysis; assay type: cell-based
[2] = species: Homo sapiens; assay: Induction of apoptosis in human A549RT-eto cells assessed as reduction in […] 9 level at 1 to 5 ug/ml measured after 24 hrs by immunoblotting analysis; assay type: functional, cell-based
[3] = species: Homo sapiens; assay: Antimigratory activity in human A549RT-eto cells assessed as decrease in cell migration at 1.5 ug/ml for 24 hrs by phase contrast microscopy-based scratch would healing assay; assay type: functional
[4] = species: Homo sapiens; assay: Down regulation of NFkappaB expression in human A549RT-eto cells at 1 to 5 ug/ml measured after 24 hrs by immunoblotting analysis; assay type: functional, cell-based
[5] = species: Homo sapiens; assay: Inhibition of NFkappaB in human A549RT-eto cells assessed as reduction in epithelial-mesenchymal transition by measuring down regulation of vimentin expression at 1 to 1.5 ug/ml after 24 hrs by immunoblotting analysis; assay type: cell-based
[6] = species: Homo sapiens; assay: Inhibition of NFkappaB in human A549RT-eto cells assessed as down regulation of P-gp expression at 1 to 5 ug/ml measured after 24 hrs by immunoblotting analysis; assay type: cell-based
[7] = species: Homo sapiens; assay: Induction of apoptosis in human A549RT-eto cells assessed as reduction in […] 8 level at 1 to 5 ug/ml measured after 24 hrs by immunoblotting analysis; assay type: functional, cell-based
[8] = species: Homo sapiens; assay: Inhibition of NFkappaB in human A549RT-eto cells assessed as downregulation of Nanog expression by immunoblotting analysis; assay type: cell-based
[9] = (§1) Cytotoxicity against human A549RT-eto cells assessed as reduction in cell viability after 72 hrs by MTT assay; assay type: functional, cell-based
[10] = species: Homo sapiens; assay: as §1; assay type: functional, cell-based
[11] = species: Homo sapiens; assay: Induction of apoptosis in human A549RT-eto cells transfected with NF-kappaB siRNA assessed as increase in pro-caspase 8 expression at 1.5 ug/ml by immunoblotting analysis; assay type: functional, cell-based
[12] = species: Homo sapiens; assay: Inhibition of NFkappaB in human A549RT-eto cells assessed as suppression of sphere formation by measuring decrease in spheroid size at 1.5 ug/mL treated for 24 hrs followed by cell culture for 6 days and measured over 48 hrs by optical microscopic method; assay type: cell-based
[13] = species: Homo sapiens; assay: Down regulation of P-gp expression in human A549RT-eto cells transfected with NF-kappaB siRNA at 1.5 ug/ml by immunoblotting analysis; assay type: functional, cell-based
[14] = species: Homo sapiens; assay: Inhibition of NFkappaB in human A549RT-eto cells assessed as down regulation of Oct4 expression by immunoblotting analysis; assay type: cell-based
[15] = species: Homo sapiens; assay: Induction of apoptosis in human A549RT-eto cells transfected with NF-kappaB siRNA assessed as increase in pro-caspase 9 expression at 1.5 ug/ml by immunoblotting analysis; assay type: functional, cell-based
[16] = species: Homo sapiens; assay: Induction of apoptosis in human A549RT-eto cells transfected with NF-kappaB siRNA assessed as increase in cleaved PARP expression at 1.5 ug/ml by immunoblotting analysis; assay type: functional, cell-based
[17] = species: Homo sapiens; assay: Inhibition of NFkappaB in human A549RT-eto cells assessed as reduction in epithelial-mesenchymal transition by measuring down regulation of N-Cadherin expression at 1 to 1.5 ug/ml after 24 hrs by immunoblotting analysis; assay type: cell-based
[18] = test system: A549; assay: Cytotoxicity against human A549 cells assessed as reduction in cell viability after 72 hrs by MTT assay; assay type: functional, cell-based; conditions: A549, 72 h
[19] = species: Homo sapiens; assay: Inhibition of NFkappaB in human A549RT-eto cells assessed as down regulation of S0x2 expression by immunoblotting analysis; assay type: cell-based
[20] = species: Homo sapiens; assay: Down regulation of NFkappaB expression in human A549RT-eto cells transfected with NF-kappaB siRNA at 1.5 ug/ml by immunoblotting analysis; assay type: functional, cell-based
[21] = species: Homo sapiens; assay: Inhibition of NFkappaB in human A549RT-eto cells assessed as suppression of sphere formation by measuring decrease in number of spheroid formation at 1.5 ug/mL treated for 24 hrs followed by cell culture for 6 days and measured over 48 hrs by optical microscopic method; assay type: cell-based
[22] = species: Homo sapiens; assay: Induction of apoptosis in human A549RT-eto cells assessed as increase in PARP level at 1 to 5 ug/ml measured after 24 hrs by immunoblotting analysis; assay type: functional, cell-based
[23] = Antiinvasive activity in human A549RT-eto cells assessed as reduction in cell invasion at 1.5 ug/ml measured after 24 hrs using hematoxylin-eosin by microscopy-based transwell assay relative to control; assay type: functional
[24] = species: Homo sapiens; assay: Inhibition of NFkappaB in human A549RT-eto cells assessed as down regulation of Bmi1 expression by immunoblotting analysis; assay type: cell-based
[25] = species: Homo sapiens; assay: Cytotoxicity against human A549RT-eto cells assessed as cell death after 24 hrs by MTT assay; assay type: functional, cell-based

For `CO[C@@]12C=C3C(=O)c4c(O)cccc4O[C@@]34[C@@H](C1)C(C)(C)O[C@@]4(CC=C(C)C)C2=O`, the inhibition [1] was “Active”, the Activity [2] was “Active” and the Activity [3] was “Active”. For the same molecule, the Activity [4] was “Active”, the inhibition [5] was “Active” and the inhibition [6] was “Active”. For the same molecule, the Activity [7] was “Active”, the inhibition [8] was “Dose-dependent effect” and the IC50 [9] was 4.96 µg/mL (≈ 12.1 µM). For the same molecule, the Activity [10] was “Dose-dependent effect”, the Activity [11] was “Active” and the inhibition [12] was “Active”. The Activity [13] was “Active”, the inhibition [14] was “Dose-dependent effect” and the Activity [15] was “Active”. For the same molecule, the Activity [16] was “Active”, the inhibition [17] was “Active” and the IC50 [18] was 2.51 µg/mL (≈ 6.12 µM). The inhibition [19] was “Dose-dependent effect”, the Activity [20] was “Active” and the inhibition [21] was “Active”. The Activity [22] was “Active”, the “fold change (FC)” value [23] was 2 and the inhibition [24] was “Dose-dependent effect”. The Activity [25] was “Active”.
